Here are results for one molecule from patent publication US10781182B2, “Compounds, process for obtaining the compounds, pharmaceutical composition, use of the compounds and method for treating psychiatric disorders and/or sleep disorders” (ACHÉ LABORATÓRIOS FARMACÊUTICOS S.A., priority 2016, dated 2020).

Converted amounts (≈) assume the structure as drawn.

Data set [1] is described as follows: Water solubility (shake-flask, PBS pH 7.4). In kind it is physicochemical. The conditions noted are these: aqueous buffer, thermodynamic from solid. As to the method: In addition, chromatographic purity (%) was defined as the calculation of the main peak area relative to the calculation of the peak area integrate of the standard HPLC calibration chromatogram. A standard calibration chromatogram was then generated for each compound tested along with a UV/VIS spectrum with maximal labeled absorbance. The shake-flash technique was used with constant stirring during incubation to keep a uniform medium for 24 hours in PBS at pH 7.4.

Another data set relates to human hepatocytes. Nature of the data set: Intrinsic clearance in cryopreserved human hepatocytes. Format: in vitro ADME. On the procedure: Cryopreserved hepatocytes from humans, rats (Sprague-Dawley males) and from mice (CD-1 males) were used for incubation at different times (0, 0.5, 1, 1.5, 2 hours) at 37° C. followed by HPLC-MS/MS detection. The aim was to verify the clearance time of the test substance on hepatocytes. The experiment was performed on a 96-well plate and the cryopreserved hepatocytes were thawed and resuspended in Krebs-Heinslet buffer(pH 7.3). The reaction was started by adding each test compound to each cell suspension and performing the incubation at the times indicated above. The reaction was quenched with addition of acetonitrile in the wells and detection by HPLC-MS/MS (mass spectrometry). MS/MS is performed by combining two mass detectors into a single instrument.

A further data set has as its target CYP1A2 (Homo sapiens (Human), UniProt P05177). Briefly: CYP inhibition, fluorogenic substrate. In kind it is in vitro ADME. The source says:
(§1) The CYP inhibition test used fluorogenic substrates specific to each CYP to check for inhibition thereof by detection of the expected metabolite using a fluorimetric method. Recombinant CYPs (CYP2B6, CYP2C8, […], CYP2C19, CYP2D6, CYP3A4) from specific humans for each cytochrome family, subfamily and polypeptide were used. The following were used as substrates: CEC (3-Cyano-7-Ethoxycoumarin) which forms as metabolite CHC (3-Cyano-7-Hydroxycoumarin); EFC (7-Ethoxy-4-trifluoromethyl coumarin), forming the metabolite HFC (7-Hydroxytri fluoromethylcoumarin); DBF (Dibenzylfluorescein) and its respective fluorescein metabolite; MFC (7-Methoxy-4-trifluoromethylcoumarin) which forms the metabolite HFC (7-Hydroxytrifluoromethylcoumarin); BFC (7-Benzyloxy-Trifluoromethylcoumarin) and its metabolite HFC; and BzRes (benzyloxyresorufin) to form resofurine. The detection of the metabolite was done with a fluorimetric method: analytical technique to identify and characterize the amount of substance by excitation using a beam of ultraviolet light and measurement of the emitted fluorescence. For detection, a 96-well plate was used. Each sample was tested in two wells (n=2) as standard condition. At least 04 wells were separated for vehicle (control). Compounds were tested at a concentration […], standard for this assay. They were preincubated with a NADPH generator system in a phosphate buffer (pH 7.4) for 5 minutes at 37° C. The reaction was started by adding the specific CYP enzymes, substrate and bovine serum albumin (BSA<0.4 mg/ml). Incubations were performed between 20-50 minutes at 37° C. according to the specific parameter of each fluorogenic substrate, for the evaluated component. Fluorescence at each well was detected before and after the incubation period.

In another data set the target is MT1 receptor (Homo sapiens (Human), UniProt P48039). Briefly: MT1 functional assay. The conditions noted are these: MT1 and MT2 receptors.
Another data set concerns CYP2C9 and CYP2C19. The conditions noted are these: cited from earlier work.
Another data set deals with CYP2D6 (Homo sapiens (Human), UniProt P10635). Nature of the data set: CYP inhibition, fluorogenic substrate. In kind it is in vitro ADME. Further details: dose or concentration left out as unconfirmed. The conditions noted are these: recombinant CYP2D6, pH 7.4.
From the text: as §1

A further data set deals with CYP2C19 (Homo sapiens (Human), UniProt P33261). Briefly: CYP inhibition, fluorogenic substrate. The conditions noted are these: recombinant CYP2C19, pH 7.4. Format: in vitro ADME. The arrangement: dose or concentration left out as unconfirmed.
From the text: as §1

For a further data set, the target named is CYP2C8 (Homo sapiens (Human), UniProt P10632). Nature of the data set: CYP inhibition, fluorogenic substrate. In kind it is in vitro ADME. Further details: dose or concentration left out as unconfirmed. The conditions noted are these: recombinant CYP2C8, pH 7.4.
From the text: as §1

A further data set deals with CYP2C9 (Homo sapiens (Human), UniProt P11712). Briefly: CYP inhibition, fluorogenic substrate. Format: in vitro ADME. Further details: dose or concentration left out as unconfirmed. Conditions: recombinant CYP2C9, pH 7.4.
From the text: as §1

A further data set has as its target CYP2B6 (Homo sapiens (Human), UniProt P20813). Nature of the data set: CYP inhibition, fluorogenic substrate. In kind it is in vitro ADME. The arrangement: dose or concentration left out as unconfirmed. Conditions: recombinant CYP2B6, pH 7.4.
From the text: as §1

For data set [2] the following is noted: oral, estimated, from literature; cited from earlier work.

What is called solubility is how much of the substance goes into solution per volume. Broadly, the inhibition is the drop in the measured response relative to a control, in per cent.

Sequence of CYP2C8 (P10632 whole entry): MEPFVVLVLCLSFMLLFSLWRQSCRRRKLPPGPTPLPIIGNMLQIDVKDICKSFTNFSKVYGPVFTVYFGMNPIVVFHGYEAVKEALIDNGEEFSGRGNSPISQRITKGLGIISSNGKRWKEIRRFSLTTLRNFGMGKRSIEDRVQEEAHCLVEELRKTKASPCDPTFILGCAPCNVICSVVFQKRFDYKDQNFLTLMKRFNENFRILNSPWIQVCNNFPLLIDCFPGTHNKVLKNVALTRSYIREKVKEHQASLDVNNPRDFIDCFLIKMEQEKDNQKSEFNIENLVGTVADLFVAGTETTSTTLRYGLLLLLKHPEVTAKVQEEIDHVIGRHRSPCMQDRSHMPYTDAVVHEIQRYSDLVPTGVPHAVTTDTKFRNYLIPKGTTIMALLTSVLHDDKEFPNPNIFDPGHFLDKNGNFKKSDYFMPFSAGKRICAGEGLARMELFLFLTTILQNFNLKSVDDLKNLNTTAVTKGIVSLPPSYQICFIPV
Sequence of CYP2C9 (P11712 whole entry): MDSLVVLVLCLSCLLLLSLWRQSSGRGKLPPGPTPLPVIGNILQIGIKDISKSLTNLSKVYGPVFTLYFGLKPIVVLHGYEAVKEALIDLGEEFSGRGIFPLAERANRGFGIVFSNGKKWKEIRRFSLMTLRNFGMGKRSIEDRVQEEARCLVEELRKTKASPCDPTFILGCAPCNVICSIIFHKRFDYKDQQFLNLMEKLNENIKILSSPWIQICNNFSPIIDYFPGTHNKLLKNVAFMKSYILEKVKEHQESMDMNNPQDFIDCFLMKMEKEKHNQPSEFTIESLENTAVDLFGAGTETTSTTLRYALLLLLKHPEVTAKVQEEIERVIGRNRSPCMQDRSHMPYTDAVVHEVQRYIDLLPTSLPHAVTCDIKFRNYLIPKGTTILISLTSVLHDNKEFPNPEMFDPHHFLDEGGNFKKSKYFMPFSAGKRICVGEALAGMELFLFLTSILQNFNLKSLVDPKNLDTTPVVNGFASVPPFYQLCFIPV
Sequence of CYP2D6 (P10635 whole entry): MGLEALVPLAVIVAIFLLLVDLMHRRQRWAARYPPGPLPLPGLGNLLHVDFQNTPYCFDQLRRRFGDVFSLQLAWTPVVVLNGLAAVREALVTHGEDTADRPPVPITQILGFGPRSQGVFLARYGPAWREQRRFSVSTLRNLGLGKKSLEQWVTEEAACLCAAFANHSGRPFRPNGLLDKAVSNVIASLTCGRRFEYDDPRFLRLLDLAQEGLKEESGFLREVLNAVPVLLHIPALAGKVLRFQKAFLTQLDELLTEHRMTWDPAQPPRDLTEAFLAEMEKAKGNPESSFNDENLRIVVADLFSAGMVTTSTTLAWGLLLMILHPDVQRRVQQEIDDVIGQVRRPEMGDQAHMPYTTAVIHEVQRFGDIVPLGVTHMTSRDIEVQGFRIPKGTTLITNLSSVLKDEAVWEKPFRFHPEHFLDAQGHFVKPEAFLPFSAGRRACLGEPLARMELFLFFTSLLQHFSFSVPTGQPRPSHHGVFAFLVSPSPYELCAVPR
Sequence of CYP2C19 (P33261 whole entry): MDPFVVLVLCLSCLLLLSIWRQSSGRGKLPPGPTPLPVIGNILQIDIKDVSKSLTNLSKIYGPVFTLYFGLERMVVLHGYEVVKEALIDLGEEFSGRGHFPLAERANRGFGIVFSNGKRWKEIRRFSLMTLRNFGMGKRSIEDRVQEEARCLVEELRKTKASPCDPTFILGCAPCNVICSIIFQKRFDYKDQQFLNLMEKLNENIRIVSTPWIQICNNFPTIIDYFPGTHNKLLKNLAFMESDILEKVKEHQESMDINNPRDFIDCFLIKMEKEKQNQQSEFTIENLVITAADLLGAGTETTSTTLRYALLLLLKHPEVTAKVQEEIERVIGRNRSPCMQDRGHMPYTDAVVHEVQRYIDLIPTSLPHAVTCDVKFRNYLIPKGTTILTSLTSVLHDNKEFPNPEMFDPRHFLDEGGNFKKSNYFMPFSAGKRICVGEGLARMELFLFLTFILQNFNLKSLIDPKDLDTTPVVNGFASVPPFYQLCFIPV
Sequence of CYP2B6 (P20813 whole entry): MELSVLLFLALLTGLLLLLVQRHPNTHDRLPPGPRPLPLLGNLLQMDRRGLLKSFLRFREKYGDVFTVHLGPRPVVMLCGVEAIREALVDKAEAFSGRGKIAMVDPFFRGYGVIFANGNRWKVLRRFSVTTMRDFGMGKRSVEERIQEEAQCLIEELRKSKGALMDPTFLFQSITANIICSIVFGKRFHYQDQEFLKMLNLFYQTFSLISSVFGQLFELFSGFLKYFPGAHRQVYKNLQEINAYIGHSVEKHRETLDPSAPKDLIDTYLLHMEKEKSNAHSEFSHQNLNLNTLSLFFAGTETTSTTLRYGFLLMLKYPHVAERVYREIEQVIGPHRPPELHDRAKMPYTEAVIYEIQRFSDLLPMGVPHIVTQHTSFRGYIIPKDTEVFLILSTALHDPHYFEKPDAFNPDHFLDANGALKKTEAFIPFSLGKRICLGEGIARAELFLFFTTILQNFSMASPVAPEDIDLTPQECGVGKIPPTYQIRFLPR
Sequence of CYP1A2 (P05177 whole entry): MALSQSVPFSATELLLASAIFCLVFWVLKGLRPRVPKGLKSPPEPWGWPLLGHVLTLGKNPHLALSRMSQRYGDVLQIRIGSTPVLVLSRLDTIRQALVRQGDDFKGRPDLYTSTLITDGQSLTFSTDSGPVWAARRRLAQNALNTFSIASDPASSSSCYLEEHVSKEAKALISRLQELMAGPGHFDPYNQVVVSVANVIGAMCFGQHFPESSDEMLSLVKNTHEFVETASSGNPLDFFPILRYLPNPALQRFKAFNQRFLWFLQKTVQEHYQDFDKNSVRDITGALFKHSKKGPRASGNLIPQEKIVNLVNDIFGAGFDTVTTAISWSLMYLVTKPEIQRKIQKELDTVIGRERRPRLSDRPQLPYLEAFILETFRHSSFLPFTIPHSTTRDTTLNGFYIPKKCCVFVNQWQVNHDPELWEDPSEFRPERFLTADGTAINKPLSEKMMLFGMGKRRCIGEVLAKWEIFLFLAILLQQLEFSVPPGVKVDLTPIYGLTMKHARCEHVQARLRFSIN
Sequence of MT1 receptor (P48039 whole entry): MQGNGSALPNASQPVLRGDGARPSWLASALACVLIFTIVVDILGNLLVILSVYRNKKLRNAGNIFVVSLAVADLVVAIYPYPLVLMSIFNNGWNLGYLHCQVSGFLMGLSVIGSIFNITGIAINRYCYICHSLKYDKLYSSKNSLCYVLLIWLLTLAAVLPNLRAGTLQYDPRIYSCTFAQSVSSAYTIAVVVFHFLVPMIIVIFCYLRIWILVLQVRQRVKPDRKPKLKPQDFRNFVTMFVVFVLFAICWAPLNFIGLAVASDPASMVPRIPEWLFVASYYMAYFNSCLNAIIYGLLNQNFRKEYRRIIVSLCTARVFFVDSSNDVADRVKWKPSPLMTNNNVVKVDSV

Molecule `COc1ccc2cccc(CCNC(C)=O)c2c1` [IA2-76, agomelatine, reference compound] returned a solubility at 24 h in [1] of 196 µM (≈ 47.7 µg/mL). The “Intrinsic clearance half-life, Human” value in the data set on human hepatocytes was found to be 48 min. Also, the “affinity to cytochrome isoforms (in words)” value on CYP1A2 is listed as “high affinity”. The “intrinsic activity (agonist, antagonist or inverse agonist)” value on MT1 receptor is reported as “agonist”. Besides, the “share metabolized by CYP2C9 and CYP2C19” value in the data set on CYP2C9 and CYP2C19 is recorded as 10%. Moreover, the inhibition was 7.9% on CYP2D6; 44.4% on CYP2C19; 12.9% on CYP2C8; -19.3% at CYP2C9; 1.8% on CYP2B6. Besides, the absolute bioavailability in data set [2] was 1%.
